Data taken from patent US8574563B2 (Bristol-Myers Squibb Company, priority 2006, dated 2013).

test system: HCV 1b-377-neo replicon cells; experiment: HCV replicon assay, HCV 1b-377-neo replicon cells (1b FRET); format: cell-based, Hepatitis C virus genotype 1b; details: Hepatitis C virus, HCV 1b-377-neo replicon cells; HCV 1b genotype; read-out: EC50 range against HCV 1b (Table 2, Range)
In short: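 Compounds were tested in genotype 1b subgenomic replicon cells carrying a neomycin marker, alongside a matched replicon line with an NS5A Y2065H substitution that confers resistance to a reference NS5A inhibitor.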

Row | Compound | EC50
1 | COC(=O)N[C@H](C(=O)N1CCC[C@H]1c1ncc(-c2ccc(-c3ccc(-c4cnc([C@@H]5CCCN5C(=O)[C@@H](Nc5cccnc5)C(C)C)[nH]4)cc3)cc2)[nH]1)[C@@H](C)OC [cj-20b, methyl ((1S,2R)-2-methoxy-1-(((2S)-2-(5-(4′-(2-((2S)-1-(N-3-pyridinyl-L-valyl)-2-pyrrolidinyl)-1H-imidazol-5-yl)-4-biphenylyl)-1H-imidazol-2-yl)-1-pyrrolidinyl)carbonyl)propyl)carbamate] | 0.001 to 0.999 nM
2 | Cc1[nH]c([C@@H]2CCCN2C(=O)[C@@H](c2ccccc2)N2CCCCC2)nc1-c1ccc(-c2ccc(-c3cnc([C@@H]4CCCN4C(=O)[C@@H](c4ccccc4)N4CCCCC4)[nH]3)cc2)cc1 [Example E5b, 1-((1R)-2-((2S)-2-(4-(4′-(4-methyl-2-((2S)-1-((2R)-2-phenyl-2-(1-piperidinyl)acetyl)-2-pyrrolidinyl)-1H-imidazol-5-yl)-4-biphenylyl)-1H-imidazol-2-yl)-1-pyrrolidinyl)-2-oxo-1-phenylethyl)piperidine] | 0.001 to 0.999 nM
3 | COC(=O)N[C@H](C(=O)N1CCC[C@H]1c1ncc(-c2ccc(-c3ccc(-c4cnc([C@@H]5CCCN5C(=O)[C@@H](NC(=O)OC)C5CC5)[nH]4)c(F)c3)cc2)[nH]1)C(C)C [Example D50, methyl ((1S)-1-cyclopropyl-2-((2S)-2-(5-(3-fluoro-4′-(2-((2S)-1-(N-(methoxycarbonyl)-L-valyl)-2-pyrrolidinyl)-1H-imidazol-5-yl)-4-biphenylyl)-1H-imidazol-2-yl)-1-pyrrolidinyl)-2-oxoethyl)carbamate] | 0.001 to 0.999 nM
4 | COC(=O)N[C@H](C(=O)N1CCC[C@H]1c1ncc(-c2ccc(-c3ccc(-c4cnc([C@@H]5CCCN5C(=O)[C@@H](Nc5noc(N)n5)C(C)C)[nH]4)cc3)cc2)[nH]1)C(C)C [cj-16, methyl ((1S)-1-(((2S)-2-(5-(4′-(2-((2S)-1-(N-(5-amino-1,2,4-oxadiazol-3-yl)-L-valyl)-2-pyrrolidinyl)-1H-imidazol-5-yl)-4-biphenylyl)-1H-imidazol-2-yl)-1-pyrrolidinyl)carbonyl)-2-methylpropyl)carbamate] | 0.001 to 0.999 nM
5 | C[C@H](NS(C)(=O)=O)C(=O)N1CCC[C@H]1c1nc(-c2ccc(-c3ccc(-c4cnc([C@@H]5CCCN5C(=O)[C@H](C)NS(C)(=O)=O)[nH]4)cc3)cc2)c[nH]1 [Example F69, N-((1S)-1-methyl-2-((2S)-2-(5-(4′-(2-((2S)-1-(N-(methylsulfonyl)-L-alanyl)-2-pyrrolidinyl)-1H-imidazol-4-yl)-4-biphenylyl)-1H-imidazol-2-yl)-1-pyrrolidinyl)-2-oxoethyl)methanesulfonamide] | 100 to 999 nM
6 | COC(=O)N[C@@H](Cc1ccccn1)C(=O)N1CCC[C@H]1c1ncc(-c2ccc(-c3ccc(-c4cnc([C@@H]5CCCN5C(=O)[C@@H](NC(=O)OC)[C@@H](C)OC)[nH]4)cc3)cc2)[nH]1 [cj-67] | 0.001 to 0.999 nM
7 | CCN(CC)[C@@H](C(=O)N1CCC[C@H]1c1ncc(-c2ccc(-c3ccc(-c4cnc([C@@H]5CCCN5C(=O)[C@@H](NC(=O)OC)C5CC5)[nH]4)c(F)c3)cc2)[nH]1)c1ccccc1 [Example D49, methyl ((1S)-1-cyclopropyl-2-((2S)-2-(5-(4′-(2-((2S)-1-((2R)-2-(diethylamino)-2-phenylacetyl)-2-pyrrolidinyl)-1H-imidazol-5-yl)-3-fluoro-4-biphenylyl)-1H-imidazol-2-yl)-1-pyrrolidinyl)-2-oxoethyl)carbamate] | 0.001 to 0.999 nM
8 | CCN(CC)[C@@H](C(=O)N1CCC[C@H]1c1ncc(-c2ccc(-c3ccc(-c4cnc([C@@H]5CCCN5C(=O)[C@H](C)O)[nH]4)cc3)cc2)[nH]1)c1ccccc1 [Example M40, (2S)-1-((2S)-2-(5-(4′-(2-((2S)-1-((2R)-2-(diethylamino)-2-phenylacetyl)-2-pyrrolidinyl)-1H-imidazol-5-yl)-4-biphenylyl)-1H-imidazol-2-yl)-1-pyrrolidinyl)-1-oxo-2-propanol] | 1 to 99 nM
9 | CN(C)[C@@H](C(=O)N1CCC[C@H]1c1ncc(-c2ccc(-c3ccc(-c4cnc([C@@H]5CCCN5C(=O)N5CCOCC5)[nH]4)cc3)cc2)[nH]1)c1ccccc1 [Example 93, (1R)-N,N-dimethyl-2-((2S)-2-(5-(4′-(2-((2S)-1-(4-morpholinylcarbonyl)-2-pyrrolidinyl)-1H-imidazol-5-yl)-4-biphenylyl)-1H-imidazol-2-yl)-1-pyrrolidinyl)-2-oxo-1-phenylethanamine] | 0.001 to 0.999 nM
10 | CN(C)[C@@H](C(=O)N1CCC[C@H]1c1ncc(-c2ccc(-c3ccc(-c4cnc([C@@H]5CCCN5C(=O)[C@@H](c5ccccc5)N(C)C)[nH]4)nn3)nn2)[nH]1)c1ccccc1 [Example 153c-1, (1R,1′R)-2,2′-(3,3′-bipyridazine-6,6′-diylbis(1H-imidazole-5,2-diyl(2S)-2,1-pyrrolidinediyl))bis(N,N-dimethyl-2-oxo-1-phenylethanamine)] | 1 to 99 nM
11 | CCNC(=O)N[C@H](C(=O)N1CCC[C@H]1c1nc(-c2ccc(-c3ccc(-c4c[nH]c([C@@H]5CCCN5C(=O)[C@@H](NC(=O)NCC)C(C)C)n4)cc3)cc2)c[nH]1)C(C)C [Example F64, 1-ethyl-3-((1S)-1-(((2S)-2-(4-(4′-(2-((2S)-1-((2S)-2-((ethylcarbamoyl)amino)-3-methylbutanoyl)-2-pyrrolidinyl)-1H-imidazol-4-yl)-4-biphenylyl)-1H-imidazol-2-yl)-1-pyrrolidinyl)carbonyl)-2-methylpropyl)urea] | 1 to 99 nM
12 | COC(=O)N[C@@H](C(=O)N1CCC[C@H]1c1ncc(-c2ccc(-c3ccc(-c4cnc([C@@H]5CCCN5C(=O)[C@H]5CC[C@@H](NC(=O)OC(C)(C)C)CC5)[nH]4)cc3)cc2)[nH]1)c1ccccc1 [Example 84-35, methyl ((1R)-2-((2S)-2-(5-(4′-(2-((2S)-1-((cis-4-((tert-butoxycarbonyl)amino)cyclohexyl)carbonyl)-2-pyrrolidinyl)-1H-imidazol-5-yl)-4-biphenylyl)-1H-imidazol-2-yl)-1-pyrrolidinyl)-2-oxo-1-phenylethyl)carbamate] | 0.001 to 0.999 nM
13 | COC(=O)N[C@@H](Cc1c[nH]c2ccccc12)C(=O)N1CCC[C@H]1c1ncc(-c2ccc(-c3ccc(-c4cnc([C@@H]5CCCN5C(=O)[C@@H](NC(=O)OC)[C@@H](C)OC)[nH]4)cc3)cc2)[nH]1 [cj-100, methyl ((1S)-1-(1H-indol-3-ylmethyl)-2-((2S)-2-(5-(4′-(2-((2S)-1-((2S,3R)-3-methoxy-2-((methoxycarbonyl)amino)butanoyl)-2-pyrrolidinyl)-1H-imidazol-5-yl)-4-biphenylyl)-1H-imidazol-2-yl)-1-pyrrolidinyl)-2-oxoethyl)carbamate] | 0.001 to 0.999 nM
14 | O=C(C(c1ccccc1)N1CCC(c2ccccc2)CC1)N1CCC[C@H]1c1ncc(-c2ccc(-c3ccc(-c4c[nH]c([C@@H]5CCCN5C(=O)[C@H]5CCCO5)n4)cc3)cc2)[nH]1 (stereo partly drawn) [Example 103-1, 1-(2-oxo-1-phenyl-2-((2S)-2-(5-(4′-(2-((2S)-1-((2R)-tetrahydro-2-furanylcarbonyl)-2-pyrrolidinyl)-1H-imidazol-4-yl)-4-biphenylyl)-1H-imidazol-2-yl)-1-pyrrolidinyl)ethyl)-4-phenylpiperidine] | 0.001 to 0.999 nM
15 | COC(=O)N[C@@H](Cc1ccc(CNC(C)=O)cc1)C(=O)N1CCC[C@H]1c1ncc(-c2ccc(-c3ccc(-c4cnc([C@@H]5CCCN5C(=O)[C@@H](NC(=O)OC)C(C)C)[nH]4)cc3)cc2)[nH]1 [cj-114, methyl ((1S)-1-(4-(acetamidomethyl)benzyl)-2-((2S)-2-(5-(4′-(2-((2S)-1-((2S)-2-((methoxycarbonyl)amino)-3-methylbutanoyl)-2-pyrrolidinyl)-1H-imidazol-5-yl)-4-biphenylyl)-1H-imidazol-2-yl)-1-pyrrolidinyl)-2-oxoethyl)carbamate] | 0.001 to 0.999 nM
16 | COC(=O)N[C@@H](C(=O)N1CCC[C@H]1c1ncc(-c2ccc(-c3ccc(-c4cnc([C@@H]5CCCN5C(=O)[C@H](NC(=O)OC)c5ccccc5Cl)[nH]4)cc3)cc2)[nH]1)c1ccccc1Cl [Example 24-3, dimethyl (4,4′-biphenyldiylbis(1H-imidazole-5,2-diyl(2S)-2,1-pyrrolidinediyl((1R)-1-(2-chlorophenyl)-2-oxo-2,1-ethanediyl)))biscarbamate] | 0.001 to 0.999 nM
17 | CCN(CC)[C@@H](C(=O)N1C[C@@H](F)C[C@H]1c1ncc(-c2ccc(-c3ccc(-c4cnc([C@@H]5C[C@H](F)CN5C(=O)[C@@H](c5ccccc5)N(CC)CC)[nH]4)cc3)cc2)[nH]1)c1ccccc1 [Example 24-6] | 0.001 to 0.999 nM
18 | COC(=O)N[C@@H](C)C(=O)N1CCC[C@H]1c1ncc(-c2ccc(-c3ccc(-c4cnc([C@@H]5CCCN5C(=O)[C@H](Cc5ccncc5)NC(=O)OC)[nH]4)cc3)cc2)[nH]1 [cj-90, methyl ((1S)-2-((2S)-2-(5-(4′-(2-((2S)-1-(N-(methoxycarbonyl)-L-alanyl)-2-pyrrolidinyl)-1H-imidazol-5-yl)-4-biphenylyl)-1H-imidazol-2-yl)-1-pyrrolidinyl)-2-oxo-1-(4-pyridinylmethyl)ethyl)carbamate] | 0.001 to 0.999 nM
19 | COC(=O)N[C@H]1CCC[C@@H]1C(=O)N1CCC[C@H]1c1ncc(-c2ccc(-c3ccc(-c4cnc([C@@H]5CCCN5C(=O)[C@H]5CCC[C@@H]5NC(=O)OC)[nH]4)cc3)cc2)[nH]1 [cj-155, dimethyl (4,4′-biphenyldiylbis(1H-imidazole-5,2-diyl(2S)-2,1-pyrrolidinediylcarbonyl(1S,2S)-2,1-cyclopentanediyl))biscarbamate] | 1 to 99 nM
20 | COC(=O)Cc1[nH]c([C@@H]2CCCN2C(=O)[C@@H](NC(=O)OC)C(C)C)nc1-c1ccc(-c2ccc(-c3cnc([C@@H]4CCCN4C(=O)[C@@H](NC(=O)OC)C(C)C)[nH]3)cc2)cc1 [Example J14b.1, methyl (2-((2S)-1-(N-(methoxycarbonyl)-L-valyl)-2-pyrrolidinyl)-4-(4′-(2-((2S)-1-(N-(methoxycarbonyl)-L-valyl)-2-pyrrolidinyl)-1H-imidazol-4-yl)-4-biphenylyl)-1H-imidazol-5-yl)acetate] | 0.001 to 0.999 nM
